Eleven compounds from ChEMBL document CHEMBL4706583, “2-Anilinoquinoline based arylamides as broad spectrum anticancer agents with B-RAF/C-RAF kinase inhibitory effects: Design, synthesis, in vitro cell-based and oncogenic kinase assessments” (Eur J Med Chem, 2020) can be followed below.

The species named for one experiment is Sus scrofa. The experiment in a line: Induction of porcine brain tubulin polymerization at 10 uM measured at 30 secs interval for 60 mins by fluorescence assay. It is filed as tissue-based.
Experiment [1] deals with RAF proto-oncogene serine/threonine-protein kinase (Homo sapiens, UniProt P04049). The experiment in a line: Inhibition of human CRAF using MEK1 (K97R) as substrate in presence of [gamma-33P]ATP by scintillation counting method.
Another experiment is filed under the species Homo sapiens. The experiment in a line: Selectivity ratio of IC50 for inhibition of human BRAF V600E mutant to IC50 for inhibition of human CRAF.
For experiment [2], the target named is Serine/threonine-protein kinase B-raf (Homo sapiens, UniProt P15056). The experiment in a line: Inhibition of human BRAF using MEK1 (K97R) as substrate in presence of [gamma-33P]ATP by scintillation counting method.
Experiment [3] has as its system Panel NCI-60 (60 carcinoma cell lines). The experiment in a line: Growth inhibition of human Panel NCI-60 (60 carcinoma cell lines) cells at 10 uM measured after 48 hrs by SRB assay relative to control. The class given is functional. As to conditions: read-out: GI.
Experiment [4] concerns the target Serine/threonine-protein kinase B-raf (Homo sapiens, UniProt P15056, V600E). The experiment in a line: Inhibition of human BRAF V600E mutant using MEK1 (K97R) as substrate in presence of [gamma-33P]ATP by scintillation counting method.
The next experiment has as its system PC-3. The experiment in a line: Growth inhibition of human PC-3 cells at 10 uM measured after 48 hrs by SRB assay relative to control. It is filed as functional. To be noted: read-out: GI.
A further experiment deals with UO-31. The experiment in a line: Growth inhibition of human UO-31 cells at 10 uM measured after 48 hrs by SRB assay relative to control. The class given is functional. As to conditions: read-out: GI.
The test system of another experiment is A498. The experiment in a line: Growth inhibition of human A498 cells at 10 uM measured after 48 hrs by SRB assay relative to control. The class given is functional. As to conditions: read-out: GI.
A further experiment concerns T47D. The experiment in a line: Growth inhibition of human T47D cells at 10 uM measured after 48 hrs by SRB assay relative to control. The class given is functional. To be noted: read-out: GI.
A further experiment relates to SR. The experiment in a line: Growth inhibition of human SR cells at 10 uM measured after 48 hrs by SRB assay relative to control. It is filed as functional. As to conditions: read-out: GI.
A further experiment relates to MOLT-4. The experiment in a line: Growth inhibition of human MOLT-4 cells at 10 uM measured after 48 hrs by SRB assay relative to control. It is filed as functional. To be noted: read-out: GI.
In a further experiment the test system is HCT-116. The experiment in a line: Growth inhibition of human HCT-116 cells at 10 uM measured after 48 hrs by SRB assay relative to control. It is filed as functional. As to conditions: read-out: GI.
The next experiment concerns CCRF-CEM. The experiment in a line: Growth inhibition of human CCRF-CEM cells at 10 uM measured after 48 hrs by SRB assay relative to control. The class given is functional. To be noted: read-out: GI.
The next experiment deals with K562. The experiment in a line: Growth inhibition of human K562 cells at 10 uM measured after 48 hrs by SRB assay relative to control. It is filed as functional. As to conditions: read-out: GI.
In another experiment the test system is RPMI-8226. The experiment in a line: Growth inhibition of human RPMI-8226 cells at 10 uM measured after 48 hrs by SRB assay relative to control. The class given is functional. To be noted: read-out: GI.
The next experiment has as its system NCI-H522. The experiment in a line: Growth inhibition of human NCI-H522 cells at 10 uM measured after 48 hrs by SRB assay relative to control. The class given is functional. To be noted: read-out: GI.
For a further experiment, the system named is HT-29. The experiment in a line: Growth inhibition of human HT-29 cells at 10 uM measured after 48 hrs by SRB assay relative to control. It is filed as functional. As to conditions: read-out: GI.
A further experiment deals with 786-0. The experiment in a line: Growth inhibition of human 786-0 cells at 10 uM measured after 48 hrs by SRB assay relative to control. The class given is functional. As to conditions: read-out: GI.
In another experiment the test system is A549. The experiment in a line: Growth inhibition of human A549 cells at 10 uM measured after 48 hrs by SRB assay relative to control. The class given is functional. As to conditions: read-out: GI.
Another experiment relates to HOP-92. The experiment in a line: Growth inhibition of human HOP-92 cells at 10 uM measured after 48 hrs by SRB assay relative to control. The class given is functional. As to conditions: read-out: GI.

Active and inactive are the calls of the source. No cut-off for these calls is given here. A value given as a limit tells only on which side of the number the result lay.

Sequence of Serine/threonine-protein kinase B-raf (Homo sapiens, UniProt P15056) (P15056 whole entry): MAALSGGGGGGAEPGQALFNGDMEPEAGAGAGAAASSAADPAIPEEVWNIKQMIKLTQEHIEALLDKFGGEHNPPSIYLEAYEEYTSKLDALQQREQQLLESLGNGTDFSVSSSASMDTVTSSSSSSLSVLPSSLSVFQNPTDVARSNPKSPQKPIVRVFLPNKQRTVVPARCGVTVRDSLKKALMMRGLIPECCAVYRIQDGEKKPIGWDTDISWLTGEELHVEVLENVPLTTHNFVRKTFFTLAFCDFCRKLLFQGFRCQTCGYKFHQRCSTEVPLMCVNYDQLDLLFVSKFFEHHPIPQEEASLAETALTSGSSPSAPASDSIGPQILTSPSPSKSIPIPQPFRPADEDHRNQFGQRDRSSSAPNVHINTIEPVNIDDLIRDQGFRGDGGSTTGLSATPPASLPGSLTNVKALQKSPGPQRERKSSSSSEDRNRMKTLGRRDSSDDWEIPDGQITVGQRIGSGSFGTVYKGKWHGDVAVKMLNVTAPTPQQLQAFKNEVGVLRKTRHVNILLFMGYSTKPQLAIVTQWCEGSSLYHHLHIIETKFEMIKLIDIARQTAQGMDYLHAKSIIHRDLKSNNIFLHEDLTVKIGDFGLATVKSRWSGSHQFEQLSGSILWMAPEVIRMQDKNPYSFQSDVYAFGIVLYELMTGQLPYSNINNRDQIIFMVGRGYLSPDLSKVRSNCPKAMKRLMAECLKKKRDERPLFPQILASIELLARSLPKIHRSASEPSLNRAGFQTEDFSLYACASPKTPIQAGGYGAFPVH
Sequence of RAF proto-oncogene serine/threonine-protein kinase (P04049 whole entry): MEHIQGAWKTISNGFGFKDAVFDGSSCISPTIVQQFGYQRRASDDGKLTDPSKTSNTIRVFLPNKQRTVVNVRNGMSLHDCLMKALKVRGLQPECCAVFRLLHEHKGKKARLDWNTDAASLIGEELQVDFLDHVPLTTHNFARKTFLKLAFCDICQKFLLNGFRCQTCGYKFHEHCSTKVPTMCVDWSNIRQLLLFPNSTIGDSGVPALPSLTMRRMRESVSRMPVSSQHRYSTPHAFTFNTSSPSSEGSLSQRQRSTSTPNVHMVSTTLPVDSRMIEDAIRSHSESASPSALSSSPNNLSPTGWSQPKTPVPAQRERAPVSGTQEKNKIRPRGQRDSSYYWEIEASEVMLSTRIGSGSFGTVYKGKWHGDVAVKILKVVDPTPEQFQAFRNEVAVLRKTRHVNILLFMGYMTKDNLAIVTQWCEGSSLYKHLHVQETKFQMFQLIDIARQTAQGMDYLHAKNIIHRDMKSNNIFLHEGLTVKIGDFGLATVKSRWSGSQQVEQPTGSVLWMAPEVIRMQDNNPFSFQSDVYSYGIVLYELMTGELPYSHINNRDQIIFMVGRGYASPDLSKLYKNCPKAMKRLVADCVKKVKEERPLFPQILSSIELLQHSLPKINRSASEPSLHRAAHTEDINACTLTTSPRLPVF
Sequence of Serine/threonine-protein kinase B-raf (Homo sapiens, UniProt P15056, V600E) (P15056 2-766 V600E limits assumed): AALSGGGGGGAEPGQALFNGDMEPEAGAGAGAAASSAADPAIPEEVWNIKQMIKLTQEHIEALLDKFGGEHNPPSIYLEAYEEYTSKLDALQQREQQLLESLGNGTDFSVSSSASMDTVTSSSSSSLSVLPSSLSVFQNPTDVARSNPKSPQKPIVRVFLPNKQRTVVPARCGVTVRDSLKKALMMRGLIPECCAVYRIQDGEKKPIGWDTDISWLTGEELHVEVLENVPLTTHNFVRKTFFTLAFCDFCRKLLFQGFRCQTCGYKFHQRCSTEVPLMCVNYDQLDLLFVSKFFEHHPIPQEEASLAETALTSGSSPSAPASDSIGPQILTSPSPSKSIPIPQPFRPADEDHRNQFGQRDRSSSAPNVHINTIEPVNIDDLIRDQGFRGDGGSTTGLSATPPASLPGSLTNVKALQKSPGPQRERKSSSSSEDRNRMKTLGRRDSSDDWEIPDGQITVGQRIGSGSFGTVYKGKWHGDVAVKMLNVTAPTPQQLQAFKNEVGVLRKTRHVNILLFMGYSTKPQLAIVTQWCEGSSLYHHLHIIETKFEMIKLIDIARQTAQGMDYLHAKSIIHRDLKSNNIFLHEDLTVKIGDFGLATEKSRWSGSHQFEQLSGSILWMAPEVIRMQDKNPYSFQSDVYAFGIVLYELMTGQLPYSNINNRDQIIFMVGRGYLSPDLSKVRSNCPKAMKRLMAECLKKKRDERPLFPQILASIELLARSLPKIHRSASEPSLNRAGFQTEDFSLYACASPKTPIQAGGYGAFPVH

Regarding `CC(=O)O[C@H]1C(=O)[C@@]2(C)[C@H]([C@H](OC(=O)c3ccccc3)[C@]3(O)C[C@H](OC(=O)[C@H](O)[C@@H](NC(=O)c4ccccc4)c4ccccc4)C(C)=C1C3(C)C)[C@]1(OC(C)=O)CO[C@@H]1C[C@@H]2O`, the result in the experiment listed under Sus scrofa was Active.

For the compound `COc1cccc2nc(Nc3cccc(NC(=O)c4cc(-n5cnc(C)c5)cc(C(F)(F)F)c4)c3)ccc12`, the values for the IC50 in experiment [1], in [2] and in experiment [4] were 414 nM, 9.28 µM and 1.1 µM, respectively. In addition, in the experiment listed under Homo sapiens, the Ratio IC50 came out at 2. For the same compound, in [3], the inhibition of growth at 10 µM amounted to 32.6%.

As for `COc1cccc2nc(Nc3cccc(NC(=O)c4cccc(Cl)n4)c3)ccc12`, the inhibition of growth at 10 µM in the experiment with PC-3 is 20.6%; in the experiment on UO-31, less than 20%; with A498 it was 32.4%; in the experiment with T47D, less than 20%; in the experiment with SR, less than 20%; with MOLT-4, 23.3%. In addition, the inhibition of growth at 10 µM is less than 20% in the experiment with HCT-116; less than 20% with CCRF-CEM; less than 20% in the experiment with K562; 4.88% in [3]; less than 20% in the experiment on RPMI-8226; less than 20% with NCI-H522. Further, the inhibition of growth at 10 µM with HT-29, in the experiment on 786-0, in the experiment on A549 and in the experiment on HOP-92 was less than 20% each time.

Take `COc1cccc2nc(Nc3cccc(NC(=O)c4ccc5ncccc5c4)c3)ccc12`: the inhibition of growth at 10 µM in the experiment on PC-3 was 56.2%; in the experiment with UO-31 it was 22.9%; with A498 it was less than 20%; with T47D it was 58%; with SR, 55.9%; in the experiment on MOLT-4, 64.2%. Further, the inhibition of growth at 10 µM with HCT-116 is 53.3%; in the experiment on CCRF-CEM, 36.9%; with K562 it was 61.1%; in experiment [3] it was 28.6%; in the experiment with RPMI-8226, 94.6%; in the experiment on NCI-H522 it was less than 20%. Further, the inhibition of growth at 10 µM in the experiment with HT-29 came to 42.4%; in the experiment with 786-0, 51.4%; in the experiment with A549 it was 20.9%; with HOP-92 it was 48.5%.

Regarding `COc1cccc2nc(Nc3cccc(NC(=O)c4cc(C(F)(F)F)cc(C(F)(F)F)c4)c3)ccc12`, the inhibition of growth at 10 µM in the experiment on PC-3 is 62.7%; with UO-31, 28.2%; in the experiment on A498, 28.6%; in the experiment on T47D, less than 20%; in the experiment with SR it was 57.4%; with MOLT-4 it was 65.2%. Also, the inhibition of growth at 10 µM with HCT-116 is less than 20%; with CCRF-CEM, 34.4%; with K562, 77.3%; in [3], 13.6%; in the experiment with RPMI-8226 it was 41.9%; in the experiment on NCI-H522 it was 23.5%. Further, the inhibition of growth at 10 µM was less than 20% with HT-29, less than 20% in the experiment on 786-0, 48% with A549 and 67.5% in the experiment with HOP-92. For the same compound, the half-maximal inhibitory concentration (IC50) in experiment [1] was 4790 nM; in [2] it was greater than 100 µM; in experiment [4], 9.45 µM.

`COc1cccc2nc(Nc3cccc(NC(=O)c4ccc(N5CCOCC5)c(C(F)(F)F)c4)c3)ccc12`: the 50% inhibitory concentration (IC50) in experiment [1] came out at 1440 nM; in [2], 40.9 µM; in [4], 4.57 µM. For the same compound, the Ratio IC50 in the experiment listed under Homo sapiens was found to be 2. Moreover, the inhibition of growth at 10 µM came to 59% in experiment [3] and 87.2% with HT-29.

Regarding `COc1cccc2nc(Nc3cccc(NC(=O)c4ccc5c(c4)OCCO5)c3)ccc12`, the inhibition of growth at 10 µM was 32.1% in the experiment on PC-3; less than 20% in the experiment on UO-31; 26.2% in the experiment with A498; 46% with T47D; 56.7% in the experiment on SR; 75.2% in the experiment on MOLT-4. Besides, the inhibition of growth at 10 µM in the experiment on HCT-116 is 32.5%; in the experiment with CCRF-CEM, 33.4%; with K562, 67.8%; in [3], 17.8%; in the experiment on RPMI-8226, 39.7%; in the experiment on NCI-H522, less than 20%. The inhibition of growth at 10 µM with HT-29 was less than 20%; in the experiment on 786-0, 48.3%; in the experiment on A549, less than 20%; with HOP-92, less than 20%.

In the case of `COc1cccc2nc(Nc3cccc(NC(=O)c4cc(N5CCOCC5)cc(C(F)(F)F)c4)c3)ccc12`, the IC50 was determined as 616 nM in experiment [1], 5.87 µM in experiment [2] and 1.49 µM in [4]. Further, the Ratio IC50 in the experiment filed under Homo sapiens turned out to be 2. In addition, the inhibition of growth at 10 µM in [3] was 38.3%.

As to `COc1cccc2nc(Nc3ccc(NC(=O)c4ccc(Cl)c(C(F)(F)F)c4)cc3)ccc12`, the inhibition of growth at 10 µM in the experiment with PC-3 was less than 20%; in the experiment on UO-31 it was less than 20%; in the experiment with A498 it was 22.6%; in the experiment on T47D, less than 20%; in the experiment on SR, less than 20%; with MOLT-4, 27.6%. Further, the inhibition of growth at 10 µM in the experiment with HCT-116 is less than 20%; in the experiment on CCRF-CEM it was less than 20%; in the experiment on K562 it was 47.5%; in experiment [3] it was 6.32%; in the experiment with RPMI-8226, less than 20%; in the experiment with NCI-H522 it was less than 20%. Moreover, the inhibition of growth at 10 µM in the experiment on HT-29 was 21.8%; in the experiment with 786-0, less than 20%; in the experiment on A549 it was less than 20%; in the experiment on HOP-92 it was 32%.

For the compound `COc1cccc2nc(Nc3ccc(NC(=O)c4ccc5c(c4)OCCO5)cc3)ccc12`, the inhibition of growth at 10 µM in the experiment with PC-3, in the experiment with UO-31, in the experiment with A498, with T47D, with SR and in the experiment with MOLT-4 was less than 20% throughout. Further, the inhibition of growth at 10 µM in the experiment on HCT-116 was less than 20%; with CCRF-CEM, less than 20%; with K562, less than 20%; in experiment [3] it was -1.17%; in the experiment on RPMI-8226 it was less than 20%; in the experiment with NCI-H522, less than 20%. The inhibition of growth at 10 µM with HT-29, in the experiment with 786-0, in the experiment with A549 and with HOP-92 was less than 20% each time.

For the compound `COc1cccc2nc(Nc3cccc(NC(=O)c4ccc(Cl)c(C(F)(F)F)c4)c3)ccc12`, the inhibition of growth at 10 µM amounted to 50.3% with PC-3; 37.6% in the experiment with UO-31; 27.5% with A498; 21.3% in the experiment with T47D; 48% in the experiment on SR; 54.8% in the experiment on MOLT-4. The inhibition of growth at 10 µM in the experiment on HCT-116 was less than 20%; in the experiment with CCRF-CEM it was 32.9%; in the experiment on K562, 56.8%; in experiment [3], 12.9%; with RPMI-8226, 31.8%; with NCI-H522, 27.4%. The inhibition of growth at 10 µM in the experiment on HT-29 is less than 20%; in the experiment with 786-0 it was less than 20%; in the experiment with A549, less than 20%; in the experiment with HOP-92, 21.5%.
